# According to PMC7717600, “Novel [(N-alkyl-3-indolylmethylene)hydrazono]oxindoles arrest cell cycle and induce cell apoptosis by inhibiting CDK2 and Bcl-2: synthesis, biological evaluation and in silico studies” (Journal of Enzyme Inhibition and Medicinal Chemistry, 2020):
# How the values were obtained:
# [1] = system: KM12; conditions: KM12, 10 μM
# [2] = system: HCC-2998; test: NCI SRB screening; format: cell-based, human; conditions: HCC-2998, 10 μM
# [3] = system: NCI-H522; conditions: NCI-H522, 10 μM
# [4] = system: SF-268; conditions: SF-268, 10 μM
# [5] = system: EKVX; conditions: 10 μM
# [6] = system: MCF7; conditions: MCF7, 10 μM
# [7] = system: HOP-62; conditions: HOP-62, 10 μM
# [8] = system: OVCAR-3; conditions: OVCAR-3, 10 μM
# [9] = system: IGROV1; conditions: IGROV1, 10 μM
# [10] = system: SK-MEL-28; conditions: SK-MEL-28, 10 μM
# [11] = system: SW-620; conditions: SW-620, 10 μM
# [12] = system: OVCAR-4; conditions: OVCAR-4, 10 μM
# [13] = system: LOX IMVI; test: NCI SRB screening; format: cell-based, human; conditions: 10 μM
# [14] = system: BT-549; conditions: BT-549, 10 μM
# [15] = system: A549/ATCC; conditions: 10 μM
# [16] = system: COLO 205; test: NCI SRB screening; format: cell-based, human; conditions: COLO 205, 10 μM
# [17] = system: NCI/ADR-RES; conditions: 10 μM
# [18] = system: CCRF-CEM; conditions: 10 μM
# [19] = system: M14; test: NCI SRB screening; format: cell-based; conditions: M14, 10 μM
# [20] = system: OVCAR-5; conditions: OVCAR-5, 10 μM
# [21] = system: SN12C; conditions: 10 μM
# [22] = system: HCT-116; test: SRB anti-proliferative assay; format: cell-based; conditions: Homo sapiens; HCT-116, SRB, mean ± SE of 3
# [23] = system: MDA-MB-231; test: SRB anti-proliferative assay; format: cell-based; conditions: Homo sapiens; MDA-MB-231, SRB, mean ± SE of 3
# [24] = system: PC-3; test: NCI SRB screening; format: cell-based, human; conditions: PC-3, 10 μM
# [25] = system: SF-539; conditions: SF-539, 10 μM
# [26] = system: MALME-3M; conditions: 10 μM
# [27] = system: NCI-H322M; test: NCI SRB screening; conditions: 10 μM
# [28] = system: UACC-62; conditions: UACC-62, 10 μM
# [29] = system: SF-295; conditions: SF-295, 10 μM
# [30] = system: SNB-19; conditions: SNB-19, 10 μM
# [31] = system: ACHN; conditions: 10 μM
# [32] = system: T-47D; conditions: 10 μM
# [33] = system: HT29; conditions: HT29, 10 μM
# [34] = system: SK-MEL-2; conditions: SK-MEL-2, 10 μM
# [35] = system: 786-0; conditions: 786-0, 10 μM
# [36] = system: K-562; conditions: K-562, 10 μM
# [37] = system: NCI-H226; conditions: NCI-H226, 10 μM
# [38] = system: OVCAR-8; conditions: OVCAR-8, 10 μM
# [39] = system: A498; conditions: A498, 10 μM
# [40] = system: U251; conditions: U251, 10 μM
# [41] = system: UO-31; conditions: UO-31, 10 μM
# [42] = system: SK-MEL-5; conditions: SK-MEL-5, 10 μM
# [43] = system: UACC-257; conditions: UACC-257, 10 μM
# [44] = system: MDA-MB-468; conditions: MDA-MB-468, 10 μM
compound,measurement,setting,value
CCCn1cc(C=NN=C2C(=O)Nc3ccc([N+](=O)[O-])cc32)c2ccccc21 [Compound 8c],GI %,[1],11%
same,GI %,[2],– (Only GI % higher than 10% are shown)
same,GI %,[3],– (Only GI % higher than 10% are shown)
same,GI %,[4],– (Only GI % higher than 10% are shown)
same,GI %,[5],– (Only GI % higher than 10% are shown)
same,GI %,[6],15%
same,GI %,[7],– (Only GI % higher than 10% are shown)
same,GI %,[8],– (Only GI % higher than 10% are shown)
same,GI %,[9],– (Only GI % higher than 10% are shown)
same,GI %,[10],– (Only GI % higher than 10% are shown)
same,GI %,[11],– (Only GI % higher than 10% are shown)
same,GI %,[12],– (Only GI % higher than 10% are shown)
same,GI %,[13],– (Only GI % higher than 10% are shown)
same,GI %,[14],– (Only GI % higher than 10% are shown)
same,GI %,[15],13%
same,GI %,[16],– (Only GI % higher than 10% are shown)
same,GI %,[17],– (Only GI % higher than 10% are shown)
same,GI %,[18],– (Only GI % higher than 10% are shown)
same,GI %,[19],– (Only GI % higher than 10% are shown)
same,GI %,[20],– (Only GI % higher than 10% are shown)
same,GI %,[21],– (Only GI % higher than 10% are shown)
same,IC50,[22],6.4 ± 0.5 µM
same,IC50,[23],15.6 ± 0.98 µM
same,GI %,[24],– (Only GI % higher than 10% are shown)
same,GI %,[25],10%
same,GI %,[26],– (Only GI % higher than 10% are shown)
same,GI %,[27],– (Only GI % higher than 10% are shown)
same,GI %,[28],– (Only GI % higher than 10% are shown)
same,GI %,[29],– (Only GI % higher than 10% are shown)
same,GI %,[30],22%
same,GI %,[31],– (Only GI % higher than 10% are shown)
same,GI %,[32],– (Only GI % higher than 10% are shown)
same,GI %,[33],– (Only GI % higher than 10% are shown)
same,GI %,[34],– (Only GI % higher than 10% are shown)
same,GI %,[35],– (Only GI % higher than 10% are shown)
same,GI %,[36],18%
same,GI %,[37],– (Only GI % higher than 10% are shown)
same,GI %,[38],29%
same,GI %,[39],– (Only GI % higher than 10% are shown)
same,GI %,[40],28%
same,GI %,[41],– (Only GI % higher than 10% are shown)
same,GI %,[42],– (Only GI % higher than 10% are shown)
same,GI %,[43],– (Only GI % higher than 10% are shown)
same,GI %,[44],17%
